Results on 27 molecules are retold here after ChEMBL document CHEMBL1201862, “PubChem BioAssay data set” (2004).

For one assay, the target named is Large T antigen (Simian virus 40, UniProt P03070). It counts as functional, Betapolyomavirus macacae.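 Note: Confirmatory-stage PubChem screen for compounds that inhibit SV40 T antigen.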
The nature of assay [1]: Luminescence Cell-Based Dose Retest to Confirm Inhibitors of Cancer Stem Cells. [Related pubchem assays (depositor defined):AID2717, AID2721]. It is filed as functional. Particulars: Homo sapiens.
A short description of assay [2]: inhibitors of firefly luciferase expression or activity, dose response, H4 neuroglioma cells, luminescence (AID 1990). It is filed as functional, cell-based.
Assay [3] in a line: Luminescence Cell-Based Dose Response HTS to Identify Inhibitors of 5'UTR Stem-Loop Driven Prion Protein mRNA Translation in H4 Neuroglioblastoma Cells. [Related pubchem assays: 1827 (Project Summary), 1813 (Primary HTS)]. It counts as functional.
A short description of assay [4]: inhibitors of SNCA 5'UTR-driven reporter translation, confirmation, H4 neuroglioma cells, luminescence (AID 1988). It counts as functional, cell-based.
A short description of assay [5]: growth suppression of PTEN-null colon cells, dose response, cell-based, HCT116 PTEN knockout (AID 1047).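 Note: HCT116 colon tumor cells with PTEN knocked out; cells exposed to compound for 60 hours before readout; potency for loss of cell viability measured by luminescence.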 It is filed as functional.
Assay [6] is described as follows: growth suppression of beta-catenin-knockout colon cells, dose response, cell-based, HCT116, human colon tumor (AID 1045).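 Note: HCT116 colon tumor cells with beta catenin knocked out; cells exposed to compound for 60 hours.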 It counts as functional.
In assay [7] the target is T1, Rac GTPase-activating protein 1 (Homo sapiens, UniProt Q9H0H5).
T1 sequence (Q9H0H5 whole entry): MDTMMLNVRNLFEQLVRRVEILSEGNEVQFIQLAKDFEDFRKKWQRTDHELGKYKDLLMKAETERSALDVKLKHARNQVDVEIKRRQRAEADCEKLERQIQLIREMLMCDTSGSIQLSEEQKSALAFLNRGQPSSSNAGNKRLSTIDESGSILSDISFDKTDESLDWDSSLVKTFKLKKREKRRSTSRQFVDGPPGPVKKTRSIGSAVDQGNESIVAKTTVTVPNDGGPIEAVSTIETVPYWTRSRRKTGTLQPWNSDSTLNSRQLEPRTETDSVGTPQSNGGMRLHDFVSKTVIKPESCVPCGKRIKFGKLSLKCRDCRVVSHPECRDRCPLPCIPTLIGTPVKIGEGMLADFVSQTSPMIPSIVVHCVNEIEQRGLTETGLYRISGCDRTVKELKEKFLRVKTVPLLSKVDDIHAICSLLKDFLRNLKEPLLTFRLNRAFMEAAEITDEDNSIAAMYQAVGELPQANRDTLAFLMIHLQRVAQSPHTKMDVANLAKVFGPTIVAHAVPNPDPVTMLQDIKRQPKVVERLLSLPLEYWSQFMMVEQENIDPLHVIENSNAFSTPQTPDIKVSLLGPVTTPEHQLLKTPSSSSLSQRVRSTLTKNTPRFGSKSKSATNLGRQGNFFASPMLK
The experiment in a line: MgcRacGAP GTPase-activating activity inhibitors, confirmation, biochemical, ADP Hunter fluorescence, primary and confirmatory (AID 624330). It counts as functional.

The target in assay [8] is T2, Heat shock factor protein 1 (Mus musculus, UniProt P38532).
T2 sequence (P38532 whole entry): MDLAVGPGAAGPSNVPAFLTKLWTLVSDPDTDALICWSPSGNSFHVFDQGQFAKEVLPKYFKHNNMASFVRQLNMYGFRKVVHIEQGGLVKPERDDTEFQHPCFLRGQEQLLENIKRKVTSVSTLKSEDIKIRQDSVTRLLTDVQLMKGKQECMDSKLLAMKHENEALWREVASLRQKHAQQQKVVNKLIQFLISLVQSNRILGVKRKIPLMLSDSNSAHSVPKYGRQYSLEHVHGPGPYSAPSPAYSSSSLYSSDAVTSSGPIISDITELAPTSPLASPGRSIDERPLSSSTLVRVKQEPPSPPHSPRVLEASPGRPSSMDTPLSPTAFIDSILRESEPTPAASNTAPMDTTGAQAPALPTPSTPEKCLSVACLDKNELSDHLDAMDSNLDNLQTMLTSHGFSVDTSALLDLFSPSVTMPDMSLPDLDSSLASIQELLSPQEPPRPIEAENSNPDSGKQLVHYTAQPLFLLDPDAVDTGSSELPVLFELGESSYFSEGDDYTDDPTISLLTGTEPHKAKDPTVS
Put plainly: inhibition of MG132-induced HSE-luciferase signal, confirmation, cell-based, NIH3T3, luminescence, dose retest (AID 2382).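 Note: NIH3T3 fibroblasts with HSF1-driven luciferase reporter stressed by proteasome inhibitor MG132; luminescence from HSF1-driven luciferase expression after 8 hours of MG132 stress.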 It counts as functional.

Assay [9] addresses T3, Corticotropin-releasing factor receptor 2/Corticotropin-releasing factor-binding protein (Homo sapiens, UniProt P24387+Q13324).
T3 sequence (Q13324 whole entry): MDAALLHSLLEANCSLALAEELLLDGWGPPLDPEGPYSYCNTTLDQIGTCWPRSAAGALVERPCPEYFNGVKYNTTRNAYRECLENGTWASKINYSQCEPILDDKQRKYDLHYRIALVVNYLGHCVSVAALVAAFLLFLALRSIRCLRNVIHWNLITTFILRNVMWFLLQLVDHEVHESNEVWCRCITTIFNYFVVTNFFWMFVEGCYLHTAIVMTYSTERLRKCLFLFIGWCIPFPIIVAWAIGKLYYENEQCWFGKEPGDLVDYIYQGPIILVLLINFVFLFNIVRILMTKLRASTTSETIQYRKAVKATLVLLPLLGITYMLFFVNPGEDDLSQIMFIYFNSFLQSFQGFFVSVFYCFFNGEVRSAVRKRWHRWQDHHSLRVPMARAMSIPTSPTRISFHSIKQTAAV
T3 sequence (P24387 whole entry): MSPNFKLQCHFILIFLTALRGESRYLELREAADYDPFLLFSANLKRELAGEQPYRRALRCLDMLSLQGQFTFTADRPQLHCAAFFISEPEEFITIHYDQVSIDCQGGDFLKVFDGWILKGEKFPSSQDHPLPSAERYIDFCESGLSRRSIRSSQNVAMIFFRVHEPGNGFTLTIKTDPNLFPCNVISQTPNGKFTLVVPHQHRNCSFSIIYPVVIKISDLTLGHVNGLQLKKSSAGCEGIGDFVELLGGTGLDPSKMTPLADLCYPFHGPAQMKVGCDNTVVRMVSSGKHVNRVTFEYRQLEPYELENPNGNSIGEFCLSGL
Put plainly: Dose Response confirmation of uHTS hits for small molecule antagonists of the CRF-binding protein and CRF-R2 receptor complex. It is filed as functional. To be noted: read-out: IC50_Mean.

The target in assay [10] is T3, Corticotropin-releasing factor receptor 2/Corticotropin-releasing factor-binding protein. The experiment in a line: activators of CRF receptor 2 with binding protein – uHTS hits, confirmation (AID 602473). To be noted: read-out: EC50_Mean. It is filed as functional.
A further assay concerns the target T4, Cytochrome P450 1A2 (Homo sapiens, UniProt P05177).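 Note: PubChem cytochrome P450 panel assay, CYP1A2 panel member.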
T4 sequence (P05177 whole entry): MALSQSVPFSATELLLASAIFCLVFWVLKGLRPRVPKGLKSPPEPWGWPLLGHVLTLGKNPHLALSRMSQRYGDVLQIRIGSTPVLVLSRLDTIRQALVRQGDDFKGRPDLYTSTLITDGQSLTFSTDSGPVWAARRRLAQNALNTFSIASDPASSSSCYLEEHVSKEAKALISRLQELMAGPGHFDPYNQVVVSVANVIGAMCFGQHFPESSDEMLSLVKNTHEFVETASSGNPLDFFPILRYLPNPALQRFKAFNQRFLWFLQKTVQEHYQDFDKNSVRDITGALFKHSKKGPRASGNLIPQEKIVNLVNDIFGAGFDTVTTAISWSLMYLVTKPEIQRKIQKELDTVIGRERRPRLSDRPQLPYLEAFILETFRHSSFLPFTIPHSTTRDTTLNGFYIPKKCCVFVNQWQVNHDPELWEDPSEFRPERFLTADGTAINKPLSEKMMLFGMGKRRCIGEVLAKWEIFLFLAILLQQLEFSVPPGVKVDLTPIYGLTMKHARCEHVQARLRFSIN

For the next assay, the target named is Cytochrome P450 2C9 (Homo sapiens, UniProt P11712).
The target of another assay is Cytochrome P450 2C19 (Homo sapiens, UniProt P33261). Put plainly: Cytochrome panel assay with activity outcomes. Panel member name: p450-cyp2c19 Compounds with AC50 equal or less than 10 uM are considered active. It is filed as functional. Particulars: read-out: AC50.
The target of assay [11] is T2, Heat shock factor protein 1. Put plainly: HSF1 potentiators in luciferase reporter cells, confirmation, cell-based, NIH3T3, luminescence, dose retest (AID 435004).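 Note: stress induced by proteasome inhibitor MG132 added 30 min after compound; luciferase reporter driven by HSF1 response element in NIH3T3 cells; actives raise luminescence as potentiators of the MG132 stress response.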 It counts as functional.
The nature of assay [12]: Luminescence Cell-Based Dose Confirmation HTS to Identify Activators of 5'UTR Stem-Loop Driven Alpha-Synuclein mRNA Translation in H4 Neuroglioblastoma Cells. [Related pubchem assays: 1829 (Project Summary), 1814 (Primary HTS)]. It counts as functional.
A short description of assay [13]: Luminescence Cell-Based Dose Response HTS to Identify Activators of Luciferase Translation or Activity in H4 […] Cells. [Related pubchem assays: 1829 (Project Summary), 1814 (Primary HTS)]. It counts as functional.
Another assay relates to H4. Put plainly: Luminescence Cell-Based Dose Response HTS to Identify Activators of 5'UTR Stem-Loop Driven Prion Protein mRNA Translation in H4 Neuroglioblastoma Cells. [Related pubchem assays: 1829 (Project Summary), 1814 (Primary HTS)]. It is filed as functional. To be noted: Homo sapiens.
The test system of the next assay is INS1. The experiment in a line: beta cell apoptosis inhibitors, cytokine rescue, dose response, luminescence, retest (AID 449756).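 Note: cell death triggered by IL-1 beta plus TNF-alpha plus IFN-gamma mixture; protective hits raise ATP signal compared with cytokine alone wells.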 It is filed as functional, cell-based. To be noted: Rattus norvegicus.

The source made the active and inactive calls.

Sequence of Large T antigen (P03070 whole entry): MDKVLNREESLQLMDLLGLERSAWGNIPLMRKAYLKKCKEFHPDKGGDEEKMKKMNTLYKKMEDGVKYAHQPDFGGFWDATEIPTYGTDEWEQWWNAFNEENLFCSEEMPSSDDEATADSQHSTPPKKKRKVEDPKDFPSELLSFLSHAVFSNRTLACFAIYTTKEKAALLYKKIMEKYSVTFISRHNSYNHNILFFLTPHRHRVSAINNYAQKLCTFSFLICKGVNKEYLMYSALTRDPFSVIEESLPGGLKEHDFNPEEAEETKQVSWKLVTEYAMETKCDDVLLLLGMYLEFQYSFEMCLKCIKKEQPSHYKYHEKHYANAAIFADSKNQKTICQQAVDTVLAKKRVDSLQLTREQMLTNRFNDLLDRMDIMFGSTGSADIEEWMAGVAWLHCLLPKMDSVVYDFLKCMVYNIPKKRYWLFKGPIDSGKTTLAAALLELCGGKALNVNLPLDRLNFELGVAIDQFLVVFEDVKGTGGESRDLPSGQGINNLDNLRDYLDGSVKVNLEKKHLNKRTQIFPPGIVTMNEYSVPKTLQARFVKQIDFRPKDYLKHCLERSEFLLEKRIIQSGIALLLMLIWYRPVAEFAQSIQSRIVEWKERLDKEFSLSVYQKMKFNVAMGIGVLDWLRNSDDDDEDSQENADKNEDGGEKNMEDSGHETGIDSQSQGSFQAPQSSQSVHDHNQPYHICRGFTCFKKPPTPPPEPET
Sequence of Cytochrome P450 2C9 (P11712 whole entry): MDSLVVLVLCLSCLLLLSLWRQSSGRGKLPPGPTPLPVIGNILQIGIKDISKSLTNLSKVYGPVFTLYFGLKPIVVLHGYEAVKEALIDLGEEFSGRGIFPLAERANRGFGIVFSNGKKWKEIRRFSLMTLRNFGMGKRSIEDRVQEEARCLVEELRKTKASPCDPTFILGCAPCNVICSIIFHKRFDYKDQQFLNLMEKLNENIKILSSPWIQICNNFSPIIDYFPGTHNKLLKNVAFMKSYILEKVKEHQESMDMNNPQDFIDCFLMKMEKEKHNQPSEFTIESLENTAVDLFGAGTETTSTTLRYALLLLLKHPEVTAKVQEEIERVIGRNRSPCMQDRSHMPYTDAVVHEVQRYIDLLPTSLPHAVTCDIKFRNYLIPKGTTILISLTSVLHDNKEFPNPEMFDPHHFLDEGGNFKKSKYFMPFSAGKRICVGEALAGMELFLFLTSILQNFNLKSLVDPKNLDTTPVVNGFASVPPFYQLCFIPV
Sequence of Cytochrome P450 2C19 (P33261 whole entry): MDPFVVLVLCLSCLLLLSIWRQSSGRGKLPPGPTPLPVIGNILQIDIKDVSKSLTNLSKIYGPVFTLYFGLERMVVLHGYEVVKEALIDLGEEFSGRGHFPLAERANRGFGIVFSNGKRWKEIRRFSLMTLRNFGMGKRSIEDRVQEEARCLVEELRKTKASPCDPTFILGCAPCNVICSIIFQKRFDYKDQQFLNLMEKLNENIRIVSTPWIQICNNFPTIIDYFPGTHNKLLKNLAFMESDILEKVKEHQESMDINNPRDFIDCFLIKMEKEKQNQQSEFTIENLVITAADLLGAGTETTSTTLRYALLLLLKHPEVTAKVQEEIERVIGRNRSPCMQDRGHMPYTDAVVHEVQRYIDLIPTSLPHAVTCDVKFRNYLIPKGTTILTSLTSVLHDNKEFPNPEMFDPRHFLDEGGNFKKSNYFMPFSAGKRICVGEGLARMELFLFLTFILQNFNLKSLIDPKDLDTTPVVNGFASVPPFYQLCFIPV

Turning to `O=C(c1ccc([N+](=O)[O-])cc1)N1CCN(c2cccc3[nH]ccc23)CC1`, the IC50 at Large T antigen is 25.9 µM (active).

On to `CN(CC(=O)Nc1ccc(Cl)c(Cl)c1)C(=O)C12CC3CC(CC(C3)C1)C2`, for which, in assay [1], the AC50 was 5.44 µM (active). For the molecule `COc1ccc(C2=Nn3c(nnc3-c3ccncc3)SC2)cc1OC`, the EC50 in assay [2] was 12.4 µM (active); in assay [3] it was 14.2 µM (active); in assay [4], 50.8 µM (active); in assay [5], 19.7 µM (active); in assay [6] it was 336 µM (active).

In the case of `Oc1ccc(N2CCN(C(=S)NCCc3ccccc3)CC2)cc1`, the IC50 on Large T antigen was 8.73 µM (active); in [7], 26.1 µM (active). As to `CCOc1ccc(NCc2nnc(SCC(=O)Nc3cc(C)on3)n2-c2ccc(OC)cc2)cc1`, the EC50 in assay [8] was > 195 µM (not active). In addition, the IC50 at Large T antigen was 30.1 µM (active). `COc1cc(/C=C(\C#N)C(=O)N2CCCCC2)ccc1O`: the IC50 on Large T antigen is 13 µM (active). With `C=CCOc1cccc(CNc2ccc3[nH]c(O)nc3c2)c1`, the values for the IC50 (at Large T antigen; in assay [9]) were 14.4 µM (active) and > 47.1 µM (inactive), respectively. The EC50 in assay [10] was > 53 µM (inactive). `O=c1c(Cl)c(NCc2ccccc2Cl)cnn1C12CC3CC(CC(C3)C1)C2`: the AC50 in assay [1] is 0.508 µM (active). As for `COc1ccccc1CN(Cc1cc2cc(C)cc(C)c2nc1O)Cc1nnnn1CC1CCCO1` (stereo not given), the EC50 in assay [5] is 44.9 µM (active); in assay [6], 54.9 µM (active). Besides, the AC50 at Cytochrome P450 1A2 was 20 µM (inconclusive); at Cytochrome P450 2C9, 14.1 µM (inconclusive). Turning to `Cc1ccc(CNc2ccc3c(c2)ncn3C(C)C)cc1`, the IC50 on Large T antigen is 42.6 µM (active).

For `Cc1ccc(NC(=O)/C(=C\c2cccc([N+](=O)[O-])c2)NC(=O)c2cccs2)cc1`, the EC50 in assay [5] is 22.8 µM (active); in assay [6], 24.1 µM (active). Also, the AC50 at Cytochrome P450 2C19 was 17.8 µM (inconclusive); on Cytochrome P450 2C9 it was 39.8 µM (inconclusive).

For `CCCCn1c(-c2cccc(C)c2)nc2cc3nc(O)c(C(C)C)nc3cc21`, the AC50 in [1] was 6.63 µM (active). For `CCOc1ccc2ncc(S(=O)(=O)c3ccc(C)cc3)c(N3CCC4(CC3)OCCO4)c2c1`, the values for the EC50 in [5], in [6] and in [11] were 40.5 µM (active), 74 µM (active) and > 260 µM (inactive), respectively.

In the case of `CCCc1ccc(-c2cc(NC(=O)CSc3n[nH]c(N)n3)n(-c3ccccc3)n2)cc1`, the EC50 was 7.46 µM (active) in assay [12], 6.51 µM (active) in assay [13] and 53.5 µM (active) in the assay on H4. Moreover, in assay [1], the AC50 is 4.18 µM (active). Turning to `O=C(Nc1nccs1)c1ccc(COc2ccccc2Br)o1`, the AC50 in [1] was 3.14 µM (active). As to `CCCc1cc(-c2[nH]nc(C(=O)OCC)c2-c2cscn2)c(O)cc1O`, at Large T antigen, the IC50 is 23.4 µM (active). On the same count and under the same terms, under `NNC(=O)C(=O)Nc1ccc(O)cc1` stands 9.75 µM (active).

With `COC(=O)C1=C(c2cccc(C#N)c2)C[C@@H]2CC[C@H]1N2C(=O)NC1Cc2ccccc2C1`, the AC50 in assay [1] is > 195 µM (inactive). The same measure, in the same setting: under `Cc1cc(NC(=O)c2cc(-c3ccncc3)nc3ccccc23)ccc1Br` stands 4.23 µM (active). The same measure, in the same setting: for `Nc1ccccc1/N=C/c1ccc(-c2cccc(Cl)c2)o1` the value was 3.68 µM (active).

Take `Cc1cc(SCC(=O)N/N=C/c2ccc(O)c(O)c2)nc2ccccc12`: the IC50 on Large T antigen is 6.59 µM (active). `CCCCCCSc1cccc(-c2nc3ccccn3c2NCc2ccccc2)c1`: the AC50 is 6.43 µM (active) in [1] and 7.57 µM (active) in the assay with INS1. In the case of `COc1cc(SC#N)ccc1/N=C/c1c(C)nn(-c2cccc3ccccc23)c1O`, the IC50 at Large T antigen is 14.1 µM (active). The EC50 in [6] was 93.7 µM (active). With `O=C1C2C3C=CC(C4CC34)C2C(=O)N1/N=C/c1ccc(-c2ccc(F)cc2[N+](=O)[O-])o1` (stereo not given), the AC50 in [1] is 1.08 µM (active).

In the case of `COc1cc(/C=N/NC(=O)C2=NNC(=O)C2C)ccc1O` (stereo not given), the IC50 on Large T antigen was 26.7 µM (active); in [7] it was 76.3 µM (active). Regarding `O=C(CSCc1cccc(Br)c1)N/N=C/c1ccc2c(c1)OCO2`, in assay [1], the AC50 was 3 µM (active). For `Nc1ccc(O)c(C(=O)O)c1` [MESALAMINE], on Large T antigen, the IC50 is 19.1 µM (active). Further, the concentration at half-maximal activity (AC50) on Cytochrome P450 2C9 is 12.6 µM (inconclusive).
